{"source": "paper PMC9545474", "about": "“Anticancer Water‐Soluble Organoruthenium Complexes: Synthesis and Preclinical Evaluation” (Chembiochem, 2022)", "key": {"[1]": {"test": "Precipitation in drug-medium solutions", "format": "physicochemical"}, "[2]": {"test_system": "A2780 ovarian cancer cells", "test": "24-hour MTT chemosensitivity assay with 72-hour recovery, A2780", "format": "cell-based, human", "settings": "for IC50: 24 h exposure, 72 h recovery, MTT, read-out: IC50 values ±SD, A2780", "method": "(§1) Chemosensitivity studies were undertaken using a 24‐hour MTT assay, with a 72‐hour recovery period. The IC50 values were determined against ovarian A2780 (cisplatin‐sensitive) and A2780cisR (cisplatin‐resistant) cancer cell lines, non‐small‐cell lung H460 cancer cell line, and normal prostate PNT2 cell line, exposed to each of compounds 4–8, cisplatin or the phosphine ligands (Table 1 and S4, Figures S29–S31). […] This is unusual but can be related to solubility issues not visible for the naked eye and thus hindering its activity in cells. […] When tested on their own, the phosphine ligands are not active below 100 μM for all four cell lines. […] This therefore prevents comparison with the well‐known RAPTA family, and more especially with RAPTA−C which bears a PTA ligand and a p‐cym ligand, making this complex relatively similar in terms of geometry with complex 4.[21] […] This confirms the interest of the sulfur coordinating atom in terms of cytotoxicity for organoruthenium complexes.[23]\n(§2) Chemosensitivity assay: In vitro chemosensitivity tests were performed against A2780, A2780cisR, PNT2 and H460 cells. Cells were routinely maintained as monolayer cultures in RPMI 1640 medium supplemented with 10 % foetal calf serum, penicillin (100 I.U./mL) and streptomycin (100 μg/mL), sodium pyruvate (1 mM) and L‐glutamine (2 mM). For chemosensitivity studies, cells were seeded in 96‐well plates at a concentration of 7.5×10^3 cells per well and the plates were incubated for 24 h at 37 °C and a 5 % CO2 humidified atmosphere prior to drug exposure.\n(§3) Complexes were dissolved in either DMSO (complexes 4, 5, and 8) or PBS (complexes 6 and 7) to provide stock solutions which were further diluted with media to provide a range of final concentrations. Drug‐media solutions were added to cells (the final concentration of DMSO was less than 1 % (v/v) in all cases) and incubated for 24 h at 37 °C and a 5 % CO2 humidified atmosphere. The drug‐media solution was removed from the wells and the cells were washed with PBS (100 μL, twice) and 200 μL of complete fresh media were added to each well. The plates were further incubated for 72 h at 37 °C and a 5 % CO2 humidified atmosphere to allow for a period of recovery. 3‐(4,5‐dimethylthiazol‐2‐yl)‐2,5‐diphenyltetrazolium bromide (MTT) (40 μL, 2.5 mg/mL) was added to each well and plates were incubated for 2 h. All solutions were then removed and 100 μL of DMSO was added to each well in order to dissolve the purple formazan crystals. A Thermo Scientific Multiskan EX microplate photometer was used to measure the absorbance in each well at 570 nm. Cell survival was determined as the absorbance of treated cells divided by the absorbance of controls and expressed as a percentage. The IC50 values were determined from plots of % survival against drug concentration. Each experiment was repeated in triplicates of triplicates and a mean value was obtained and stated as IC50 (μM) ± SD. Untreated cells were used as a negative control, and cells treated with cisplatin were used as a positive control."}, "[3]": {"test_system": "PNT2 non-cancerous human prostate cells", "test": "24-hour MTT chemosensitivity assay with 72-hour recovery, PNT2", "format": "cell-based", "settings": "24 h exposure, 72 h recovery, MTT; read-out: IC50 values ±SD, PNT2", "method": "as §1, §2, §3"}, "[4]": {"test_system": "A2780cisR cisplatin-resistant ovarian cancer cells", "test": "24-hour MTT chemosensitivity assay with 72-hour recovery, A2780cisR", "format": "cell-based, human", "settings": "for IC50: 24 h exposure, 72 h recovery, MTT, read-out: IC50 values ±SD, A2780cisR", "method": "as §1, §2, §3"}, "[5]": {"test_system": "H460 non-small-cell lung cancer cells", "test": "24-hour MTT chemosensitivity assay with 72-hour recovery, H460", "format": "cell-based", "settings": "for IC50: 24 h exposure, 72 h recovery, MTT, read-out: IC50 values ±SD, H460", "method": "as §1, §2, §3"}, "A2780 cells": {"test_system": "A2780 cells", "test": "JC-10 mitochondrial membrane potential assay by flow cytometry", "format": "cell-based, human", "settings": "A2780, 24 h, complexes at IC50, cisplatin 6.5 µM", "from_the_text": "A membrane potential sensitive fluorescent probe JC‐10 was used to determine whether the apoptosis induced by complexes 6 and 8 is accompanied by changes in the mitochondrial membrane potential (ΔΨm) of A2780 cells. JC‐10 aggregates inside mitochondria and emits orange fluorescence. Following membrane […], JC‐10 is disaggregated and this in turn reduces the orange fluorescence.\nFigure 8 Effect of complexes 6 and 8 on the mitochondrial membrane potential. […] The percentages of cells with depolarised mitochondrial membrane potential were assessed by flow cytometry after staining with JC‐10. The data are expressed as the means±SD of the three individual experiments.\nMitochondrial membrane potential assay: Analysis of the changes of mitochondrial potential in A2780 cells after exposure to complexes 6 and 8 was carried out using the JC‐10 mitochondrial membrane potential assay kit (abcam®) according to the manufacturer's instructions. Briefly, 1.0×10^6 cells per well were seeded in a 6‐well plate and incubated for 24 at 37 °C and a 5 % CO2 humidified atmosphere. […] Supernatants were removed by suction, and each well was washed with PBS before detaching the cells using trypsin. Staining of the samples was done in tubes protected from light, incubating for 30 min in the dark at room temperature. Samples were immediately analysed on a BD Accuri C6 Plus System Flow Cytometer, reading the reduction of fluorescence in the FL2 channel."}, "MCF-7 cell line": {"test_system": "MCF-7 cell line", "design": "method as in PMID 27357845", "settings": "read-out: EC50 against MCF-7 cell line; cited from earlier work"}, "[6]": {"test_system": "A2780 ovarian cancer cells", "design": "method as in PMID 32237195", "settings": "read-out: IC50 values ±SD, A2780; cited from earlier work"}, "[7]": {"test_system": "non-immortalised lymphocytes", "design": "method as in PMID 33119178", "settings": "cited from earlier work"}, "[8]": {"test_system": "A2780cisR cisplatin-resistant ovarian cancer cells", "design": "method as in PMID 32237195", "settings": "read-out: IC50 values ±SD, A2780cisR; cited from earlier work"}, "[9]": {"test_system": "H460 non-small-cell lung cancer cells", "design": "method as in PMID 32237195", "settings": "read-out: IC50 values ±SD, H460; cited from earlier work"}, "[10]": {"test_system": "ovarian, colon, and lung cancer cell lines", "design": "method as in PMID 32237195", "settings": "some ovarian; cited from earlier work"}}, "note": "Read-outs that look alike come from different tables or passages of the source."}
{"compound": "Cc1ccc(C(C)C)cc1.N#CC1=C(C#N)[S][Ru-]([P+]23CN4CN(CN(C4)C2)C3)[S]1", "note": "[Complex 4, (η^6‐p‐cymene)(PTA)Ru(Mnt)]", "values": [{"measurement": "Concentration above which the complex precipitates", "setting": "[1]", "result": "higher than 50 μM"}, {"measurement": "IC50", "setting": "[2]", "result": "≥ 50", "unit": "µM"}, {"measurement": "IC50", "setting": "[3]", "result": "≥ 50", "unit": "µM"}, {"measurement": "IC50", "setting": "[4]", "result": "≥ 50", "unit": "µM"}, {"measurement": "IC50", "setting": "[5]", "result": "≥ 50", "unit": "µM"}]}
{"compound": "N.N.[Cl][Pt][Cl]", "note": "[Cisplatin, reference compound]", "values": [{"measurement": "% cell population with high orange fluorescence", "setting": "A2780 cells; Experiment 1", "result": 88.9, "unit": "%"}, {"measurement": "% cell population with low orange fluorescence", "setting": "A2780 cells; Experiment 1", "result": 11.1, "unit": "%"}, {"measurement": "% cell population with high orange fluorescence", "setting": "A2780 cells; Experiment 2", "result": 87, "unit": "%"}, {"measurement": "% cell population with low orange fluorescence", "setting": "A2780 cells; Experiment 2", "result": 13.0, "unit": "%"}, {"measurement": "% cell population with high orange fluorescence", "setting": "A2780 cells; Experiment 3", "result": 82.1, "unit": "%"}, {"measurement": "% cell population with low orange fluorescence", "setting": "A2780 cells; Experiment 3", "result": 17.9, "unit": "%"}, {"measurement": "% cell population with high orange fluorescence", "setting": "A2780 cells; Summary, mean values ± SD", "result": "86 ± 3.5", "unit": "%"}, {"measurement": "IC50", "setting": "[2]", "result": "6.5 ± 0.4", "unit": "µM"}, {"measurement": "Selectivity index (SI), A2780", "setting": "[2]; mean IC50 PNT2 / mean IC50 A2780", "result": 1.85}, {"measurement": "IC50", "setting": "[3]", "result": "12 ± 0.7", "unit": "µM"}, {"measurement": "IC50", "setting": "[4]", "result": "18 ± 0.6", "unit": "µM"}, {"measurement": "Selectivity factor (cross-resistance, resistance factor RF)", "setting": "[4]; IC50 A2780cisR / IC50 A2780", "result": 2.8}, {"measurement": "Selectivity index (SI), A2780cisR", "setting": "[4]; mean IC50 PNT2 / mean IC50 A2780cisR", "result": 0.67}, {"measurement": "IC50", "setting": "[5]", "result": "4.5 ± 0.2", "unit": "µM"}, {"measurement": "Selectivity index (SI), H460", "setting": "[5]; mean IC50 PNT2 / mean IC50 H460", "result": 2.67}]}
{"compound": "Cc1ccc(C(C)C)cc1.[Cl][Ru-]1[O][n+]2ccccc2[S]1", "note": "[[(η^6‐p‐cymene)Ru(pyrithionato)Cl]]", "values": [{"measurement": "EC50", "setting": "MCF-7 cell line", "result": "3.81 ± 0.06", "unit": "µM"}]}
{"compound": "Cc1ccc(C(C)C)cc1.N#CC1=C(C#N)[S][Ru][S]1", "note": "[Complex 3, [(η^6‐p‐cymene)Ru(Mnt)]]", "values": [{"measurement": "IC50", "setting": "[6]", "result": "0.5 ± 0.04", "unit": "µM"}, {"measurement": "Toxicity against non-immortalised lymphocytes from healthy individuals", "setting": "[7]", "result": "absence of toxicity"}, {"measurement": "IC50", "setting": "[8]", "result": "0.32 ± 0.15", "unit": "µM"}, {"measurement": "IC50", "setting": "[9]", "result": "0.8 ± 0.1", "unit": "µM"}, {"measurement": "Potency relative to cisplatin", "setting": "[10]", "result": "5 to 60", "unit": "×"}]}
